Legend:
[1] = system: UVB-irradiated human dermal fibroblasts (HDFs); assay: UVB-induced senescence assay: SA-β-Gal staining; assay type: cell-based; settings: UVB-irradiated HDF
Description: In the second approach, we established a method for inducing senescence in these cells with 2 cycles of UVB irradiation 72h apart (Figure 2A). The use of UVA to induce senescence was discarded due to its considerably longer time requirement, being unsuitable to screen 30 compounds within a reasonable period. Cells were treated with these compounds throughout the duration of the assay and cellular senescence was monitored with two markers: accumulation of SA-β-galactosidase (SA-β-Gal) activity, and the decrease in expression of HAS2 (hyaluronic acid synthase 2), a previously reported marker of skin senescence.
Figure 2 (A) Schematic representation of the protocol for senescence induction using UVB irradiation. Cells were treated -/+ the compounds from day 1 to 7 after seeding, irradiated with UVB on days 2 and 5 and harvested for analysis on day 7. […] (C) Phase-contrast (left column) and bright field (right column) microscope images of SA-β-Gal staining showing non-irradiated cells, UVB-irradiated cells non-treated and treated with Gallic acid or Shikimic acid at the indicated concentrations. (D) Percentage of SA-β-Gal positive cells and (E) Relative HAS2 mRNA levels in non-irradiated cells, UVB-irradiated cells and UVB-irradiated cells treated with Gallic acid or Shikimic acid at the indicated concentrations. Student T-test, *p<0.05, **p<0.01, ***p<0.001.
(§1) The protocol for senescence induction using UVB irradiation is described in the Supplementary Methods. SA-β-Gal staining, WST-1, sulforhodamine B (SRB) and trypan blue assays were performed as previously described. For the siRNA experiments, the protocol for senescence induction using UVB irradiation was the same as in the Supplementary Methods. Specific siRNA (Horizon discovery, UK) for SIRT1, SIRT2, SIRT6, BiP or scramble siRNA were incubated for 6 hours before each irradiation step.
Senescence induction by UVB irradiation For the non-irradiation control conditions, HDF were […]
After 24h, culture medium was removed and well plates. After 24h, culture medium was removed replaced by fresh cell culture medium containing the and replaced with fresh cell culture medium containing compounds at different concentrations. After 24h, the compounds at different concentrations. […]
cell culture medium was removed, and cells were cells/plate in fresh cell culture medium containing the irradiated at 25 mJ/cm2 of UVB light (312 nm) in a Bio- compound in 6-well plates. After 3 days, cells were […]
amount of PBS. PBS was then removed and fresh cell fresh cell culture medium containing the compound in culture medium with the compound was added to each 6-well plates. After 2 days, cells were processed well. After 3 days, cells were irradiated again under the according to the qPCR, β-Gal staining, apoptosis, cell same conditions. After 2 days, cells were processed cycle or immunofluorescence protocols. according to the qPCR, β-Gal staining, apoptosis, cell cycle or immunofluorescence protocols.

chaperone BiP = assay: BiP protein levels (Western blot); assay type: cell-based, human; settings: UVB-irradiated cells, SA -/+ EX-527 1 μM
Description: (§2) Figure 5 (A) Western-blot of BiP proteins levels in UVB or non UVB irradiated cells treated with SA at the indicated concentrations in presence or absence of EX-527 1 μM. (B) Quantification of n=3 experiments as (A). The levels of BiP are normalized by the loading control (histone H3) and represented related to the conditions in UVB irradiated cells in absence of SA and EX-527. Student T-test, *p<0.05. (C) Percentage of SA-β-Gal in assays performed as in Figure 3C. (D) Levels of spliced and unspliced XBP1 mRNA monitored by qPCR analysis in cells treated in the indicated conditions in presence or absence of SA and/or EX-527. The levels were normalized by internal controls and represented in each case related to the conditions in UVB irradiated cells in absence of SA and EX-527. Student T-test, *p<0.05, **p<0.01, ***p<0.001. (E) LC3-II protein levels in experiments like in (A). The levels of LC3-II are normalized by the loading control (tubulin) and represented related to the conditions in UVB irradiated cells in absence of SA and EX-527. Student T-test, *p<0.05. (F) Proposed Model for the effect of SA on senescence through SIRT1. Other possible unexplored connections between SA and senescence are indicated by blue broken lines.
(§3) Protein levels were analyzed as previously described. Cells were directly lysed in 1x Laemmli Buffer (Bio-Rad, USA), incubated at 95° C and centrifuged. […]

[2] = system: H4K16ac (the target of SIRT1 and SIRT2); assay: Sirtuin activity assay in HDF: H4K16ac levels (Western blot); assay type: cell-based, human; settings: UV conditions, -/+25mM SA -/+1μM EX-527
p21 = p21 mRNA levels (qPCR); assay type: cell-based, human; settings: UVB-irradiated HDF, SA treatment
Description: RNA was extracted from cell pellets using the Total RNA Purification Kit (Norgen, Canada), according to the manufacturer’s protocol. […] The primers and their respective sequences are listed in Supplementary Table 1. qPCR protocol included one step at 95° C for 30 s, 40 cycles at 95° C for 10s, and 60° C for 1min. The results were analyzed with Bio-Rad CFX Manager software. BACT was used as a housekeeping gene to normalize gene expression. page 6: Supplementary Figure 6. Quantification (n=3) of the percentage of cells in each cell cycle phase and poliploydies in (A) non-irradiated cells treated with Shikimic acid at the indicated doses and (B) UVB-irradiated cells treated with Shikimic acid at the indicated doses, following the senescence induction method described in Figure 2A. (C) Relative p21 mRNA levels (n=3) in UVB-irradiated cells treated with Shikimic acid at the indicated doses, following the senescence induction method described in Figure 2A. (D) Second (PC-2) and third (PC-3) principal components in the fingerprint region (1800–950 cm−1) from the samples mentioned in Figure 4G. Student T-test, *p<0.05, **p<0.01, ***p<0.001. www.aging-us.com 6 AGING (1 picture or pasted object on this page, not shown here)

HDF cells = assay: SRB and Trypan blue cell viability assays; assay type: cell-based, human; settings: Shikimic acid 5, 10, 25 and 50 mM, 24h
Description: Student T-test, *p<0.05, **p<0.01, ***p<0.001.
as §1

LC3-II = LC3-II protein levels (Western blot); assay type: cell-based, human; settings: UVB-irradiated cells, SA -/+ EX-527 1 μM (reversion at SA 10mM)
Description: as §2, §3

With `O=C(O)C1=C[C@@H](O)[C@@H](O)[C@H](O)C1` [Shikimic acid] the “SA-β-Gal accumulation/staining” value [1] was “significant decrease in SA-β-Gal accumulation”, the “prevention of UV-induced cellular senescence” value ([1]; SA-β-Gal and HAS2 markers) was “prevented the development of senescence” and the BiP protein levels (chaperone BiP) was “induced upregulation of chaperone BiP”. For the same molecule, the “H4K16ac/H4 levels under UV-induced senescence” value [2] was “induced increased deacetylation of H3K9ac and H4K16ac”, the “p21 mRNA levels” value (p21) was “did not observe any clear effect” and the “cytotoxicity (SRB/trypan blue assay)” value (HDF cells) was “no differences in cytotoxicity”. For the same molecule, the LC3-II protein levels (LC3-II) was “SA-dependent decrease in the levels of LC3-II”.

Source: PMC8148468, “Shikimic acid protects skin cells from UV-induced senescence through activation of the NAD+-dependent deacetylase SIRT1” (Aging (Albany NY), 2021)
